Test results published in the supplement of paper PMC10307832.

Columns and labels:
Assay in all cases: relative viability (nuclei count vs DMSO), 5 days (fraction); higher = more cells survive
SGI-1776 + Linsitinib = compound: CN1CCC(CNc2ccc3ncc(-c4cccc(OC(F)(F)F)c4)n3n2)CC1 [SGI-1776] + C[C@]1(O)C[C@@H](c2nc(-c3ccc4ccc(-c5ccccc5)nc4c3)c3c(N)nccn32)C1 [Linsitinib] (partner 1 µM)
Outline: (§1)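 Lung cancer cell lines were pin-tool dosed in 1536-well plates on the day after seeding, with either a lone drug or a fixed anchor-drug dose plus five library-drug doses (not always all listed) in √10 steps. Nuclei were counted on 4× images after 5 days. Relative viability is the ratio of treated-well to vehicle-well nuclei counts, with each value a median of duplicate plates.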

Entinostat + OSI-027 = compound: Nc1ccccc1NC(=O)c1ccc(CNC(=O)OCc2cccnc2)cc1 [Entinostat] + COc1cccc2cc(-c3nc([C@H]4CC[C@H](C(=O)O)CC4)n4ncnc(N)c34)[nH]c12 [OSI-027] (partner 0.5 µM)
Outline: as §1

[1] = compound: C1COCCN1C2=NC(=NC3=C2OC4=C3C=CC=N4)C5=CC(=CC=C5)NC(=O)C6=CN=C(C=C6)N + CC(C)C[C@H](NC(=O)[C@H](Cc1ccccc1)NC(=O)c1cnccn1)B(O)O [Bortezomib] (partner 0.002 µM)
Outline: as §1

[2] = compound: C1COCCN1C2=NC(=NC3=C2OC4=C3C=CC=N4)C5=CC(=CC=C5)NC(=O)C6=CN=C(C=C6)N + CC(=O)c1c(C)c2cnc(Nc3ccc(N4CCNCC4)cn3)nc2n(C2CCCC2)c1=O [Palbociclib] (partner 0.5 µM)
Outline: as §1

| Cell Line | relative viability (SGI-1776 + Linsitinib; first compound 0.08 µM) | relative viability (SGI-1776 + Linsitinib; first compound 0.8 µM) | relative viability (SGI-1776 + Linsitinib; first compound 2.53 µM) | relative viability (SGI-1776 + Linsitinib; first compound 8 µM) | relative viability (Entinostat + OSI-027; first compound 0.02 µM) | relative viability (Entinostat + OSI-027; first compound 0.06325 µM) | relative viability (Entinostat + OSI-027; first compound 0.2 µM) | relative viability (Entinostat + OSI-027; first compound 0.6325 µM) | relative viability (Entinostat + OSI-027; first compound 2 µM) | relative viability ([1]; first compound 0.02 µM) | relative viability ([1]; first compound 0.06325 µM) | relative viability ([1]; first compound 0.2 µM) | relative viability ([1]; first compound 0.6325 µM) | relative viability ([1]; first compound 2 µM) | relative viability ([2]; first compound 0.02 µM) | relative viability ([2]; first compound 0.06325 µM) | relative viability ([2]; first compound 0.2 µM) | relative viability ([2]; first compound 0.6325 µM) | relative viability ([2]; first compound 2 µM) |
| --- | --- | --- | --- | --- | --- | --- | --- | --- | --- | --- | --- | --- | --- | --- | --- | --- | --- | --- | --- |
| LCLC-103H | 1.07 | 0.972 | 1.1 | 0.979 | 0.473 | 0.555 | 0.504 | 0.393 | 0.279 | 0.969 | 1.24 | 1 | 0.978 | 0.722 | 0.498 | 0.453 | 0.546 | 0.467 | 0.403 |
| LOU-NH91 | 1.06 | 1.03 | 0.955 | 0.666 | 0.719 | 0.761 | 0.708 | 0.652 | 0.585 | 0.511 | 0.474 | 0.481 | 0.489 | 0.461 | 0.541 | 0.551 | 0.565 | 0.49 | 0.535 |
| LU99A | 0.573 | 0.54 | 0.545 | 0.432 | 0.308 | 0.314 | 0.353 | 0.27 | 0.296 | 1.12 | 1.17 | 1.07 | 0.748 | 0.497 | 0.412 | 0.448 | 0.361 | 0.343 | 0.29 |
| LXF-289 | 0.992 | 0.98 | 1.01 | 0.97 | 0.795 | 0.765 | 0.894 | 0.582 | 0.395 | 1.1 | 1.11 | 0.996 | 0.997 | 0.409 | 0.603 | 0.604 | 0.623 | 0.612 | 0.384 |
| NCI-H23 | 0.724 | 0.541 | 0.517 | 0.411 | 0.711 | 0.774 | 0.648 | 0.463 | 0.287 | 1.15 | 1.44 | 1.15 | 0.899 | 0.446 | 0.622 | 0.555 | 0.457 | 0.524 | 0.225 |
| NCI-H322M | 1.01 | 1.04 | 0.933 | 0.774 | 0.608 | 0.54 | 0.558 | 0.483 | 0.371 | 1.2 | 1.25 | 1.25 | 1.24 | 0.965 | 0.485 | 0.536 | 0.54 | 0.48 | 0.384 |
| NCI-H441 | 0.506 | 0.588 | 0.645 | 0.354 | 0.592 | 0.562 | 0.592 | 0.308 | 0.233 | 0.342 | 0.638 | 0.565 | 0.648 | 0.274 | 0.208 | 0.178 | 0.198 | 0.175 | 0.198 |
| NCI-H460 | 0.683 | 0.859 | 0.785 | 0.459 | 0.606 | 0.575 | 0.335 | 0.0521 | 0.0268 | 1.45 | 1.13 | 1.27 | 1.02 | 0.125 | 0.149 | 0.186 | 0.112 | 0.146 | 0.0961 |
